Data on one molecule can be found in paper PMC9681850, “Structural basis of synthetic agonist activation of the nuclear receptor REV-ERB” (Nature Communications, 2022).

One data set concerns the target PXR (Homo sapiens, UniProt O75469). Nature of the data set: PXR assay. The data set is classed as cell-based. The conditions noted are these: relative to 5μM rifampicin. An excerpt: We thank the reviewers for the constructive comments, and we have responded to each of the […]
Overall, this is a commendable structure-function study on the transcriptional repressor, REV-ERBα. It includes the identification of an agonist that belongs to the non-heme class of small ligands. The study combines cell-based and in vitro, in vivo, and crystallographic analyses of the ligand-receptor molecular complex.
However, as a spring-board for therapeutic drug discovery, there are a few additional issues that may need to be clarified.
1. In the HEK293 2-hybrid assay, the ERB agonists are described as activators of transcription.
Perhaps, they would be more appropriately described as 'repressors'.
We have updated the manuscript to clarify this issue. In the original manuscript, we used the following to describe how the 2-hybrid assay switches agonists from repressors to activators to allow for better resolution of activity, “This format of the assay essentially functions as a mammalian 2-hybrid assay and detects REVERB agonists as activators of transcription effectively enhancing the sensitivity of such an assay from the typical one hybrid system that detects enhancement of transcriptional repression.” […]

For data set [1], the system named is 43 targets (GPCRs, ion channels, transporters, and other drug targets). In words: NIMH PDSP radioligand displacement panel. Format: binding. The conditions noted are these: of the 43 targets assessed. The text has this: We assessed the specificity of STL1267 using both in house nuclear receptor Gal4-NR reporter assays and the NIMH Psychoactive Drug Screening Program (PDSP) assays. We assessed the specificity of STL1267 in the PDSP’s radioligand displacement assays, screening for binding to off-target GPCRs, ion channels, transporters, and other drug targets (Table S1). Of the 43 targets assessed in this panel, we observed no detectable binding in 41 of them. […] Additional assessment in serotonin transporter and kappa opioid receptor activity in a functional assay may be warranted to determine absolute specificity. […]
(§1) Receptor RLBA Ki Receptor activity
(§2) Suppl ementary Tabl e 1. Speci fi ci ty of STL1267. […]

The target in a further data set is FXR (Homo sapiens, UniProt Q96RI1). Nature of the data set: Gal4-UAS reporter assay for nuclear receptor specificity. The data set is classed as cell-based. The conditions noted are these: Gal4 DBD-NR, HEK293 cells, 10 µM. The text has this:
(§3) We assessed the specificity of STL1267 using both in house nuclear receptor Gal4-NR reporter assays and the NIMH Psychoactive Drug Screening Program (PDSP) assays. We assessed the specificity of STL1267 in the PDSP’s radioligand displacement assays, screening for binding to off-target GPCRs, ion channels, transporters, and other drug targets (Table S1). Of the 43 targets assessed in this panel, we observed no detectable binding in 41 of them. […] Additional assessment in serotonin transporter and kappa opioid receptor activity in a functional assay may be warranted to determine absolute specificity.
(§4) Receptor RLBA Ki Receptor activity […]
(§5) HEK293 cells transfected with Gal4-UAS l uc i f eras e and […]
On the technique in general: A reporter such as luciferase makes a cellular process visible.

Another data set concerns the target RXRα (Homo sapiens, UniProt P19793). The description is as above. Conditions: Gal4 DBD-NR, HEK293 cells, 10 µM; RXRa. Format: cell-based.
Text: as §3, §4, §5

For a further data set, the target named is Beta3 (Homo sapiens, UniProt P13945). Nature of the data set: PDSP radioligand binding assay. The conditions noted are these: read-out: RLBA Ki.
Text: as §1, §2

The target in a further data set is T1, Alpha1B (Homo sapiens, UniProt P35368).
T1 construct: NIMH Psychoactive Drug Screening Program (assay performed there)
In words: PDSP radioligand binding assay. The conditions noted are these: read-out: RLBA Ki.
Text: as §1, §2

In a further data set the target is T2, 5-HT6 (Homo sapiens, UniProt P50406).
T2 construct: NIMH Psychoactive Drug Screening Program (assay performed there)
In words: PDSP radioligand binding assay. Conditions: read-out: RLBA Ki.
Text: as §1, §2

A further data set concerns the target T3, 5-HT2A (Homo sapiens, UniProt P28223).
T3 construct: NIMH Psychoactive Drug Screening Program (assay performed there)
Nature of the data set: PDSP radioligand binding assay. The conditions noted are these: read-out: RLBA Ki.
Text: as §1, §2

The next data set has as its target T4, Alpha2A (Homo sapiens, UniProt P08913).
T4 construct: NIMH Psychoactive Drug Screening Program (assay performed there)
Nature of the data set: PDSP radioligand binding assay. The conditions noted are these: read-out: RLBA Ki.
Text: as §1, §2

The target in another data set is T5, 5-HT2C (Homo sapiens, UniProt P28335).
T5 construct: NIMH Psychoactive Drug Screening Program (assay performed there)
Nature of the data set: PDSP radioligand binding assay. The conditions noted are these: read-out: RLBA Ki.
Text: as §1, §2

The next data set concerns the target D2 (Homo sapiens, UniProt P14416). In words: PDSP radioligand binding assay. Conditions: read-out: RLBA Ki.
Text: as §1, §2

Another data set addresses DAT (Homo sapiens, UniProt Q01959). In words: PDSP radioligand binding assay. Conditions: read-out: RLBA Ki.
Text: as §1, §2

The next data set concerns the target AR (Homo sapiens, UniProt P10275). Nature of the data set: Gal4-UAS reporter assay for nuclear receptor specificity. The data set is classed as cell-based. The conditions noted are these: Gal4 DBD-NR, HEK293 cells, 10 µM.
Text: as §3, §1, §2, §5

The next data set concerns the target ERα (Homo sapiens, UniProt P03372). The description is as above. The data set is classed as cell-based. Conditions: Gal4 DBD-NR, HEK293 cells, 10 µM; ERa.
Text: as §3, §1, §2, §5

A further data set has as its target RARα (Homo sapiens, UniProt P10276). The data set is described as above. Format: cell-based. Conditions: Gal4 DBD-NR, HEK293 cells, 10 µM; RARa.
Text: as §3, §1, §2, §5

The next data set deals with ERβ (Homo sapiens, UniProt Q92731). The description is as above. Format: cell-based. Conditions: Gal4 DBD-NR, HEK293 cells, 10 µM; ERb.
Text: as §3, §1, §2, §5

A further data set addresses VDR (Homo sapiens, UniProt P11473). The data set is described as above. The data set is classed as cell-based. Conditions: Gal4 DBD-NR, HEK293 cells, 10 µM.
Text: as §3, §1, §2, §5

The next data set deals with MR (Homo sapiens, UniProt P08235). The data set is described as above. The data set is classed as cell-based. Conditions: Gal4 DBD-NR, HEK293 cells, 10 µM.
Text: as §3, §1, §2, §5

A further data set concerns the target T6, TRα (Homo sapiens, UniProt P10827).
T6 construct: purchased NIMH Psychoactive Drug Screening Program (PDSP); in-house Gal4-NR LBD cotransfection assays
Described as above. Format: cell-based. The conditions noted are these: Gal4 DBD-NR, HEK293 cells, 10 µM; TRa.
Text: as §3, §1, §2, §5

The target of a further data set is LXRα (Homo sapiens, UniProt Q13133). Described as above. The data set is classed as cell-based. Conditions: Gal4 DBD-NR, HEK293 cells, 10 µM; LXRa.
Text: as §3, §1, §2, §5

The target in another data set is PR (Homo sapiens, UniProt P06401). The description is as above. Format: cell-based. Conditions: Gal4 DBD-NR, HEK293 cells, 10 µM.
Text: as §3, §1, §2, §5

Structures are written as SMILES.

T6 sequence (P10827 1-410 isoform P10827-2): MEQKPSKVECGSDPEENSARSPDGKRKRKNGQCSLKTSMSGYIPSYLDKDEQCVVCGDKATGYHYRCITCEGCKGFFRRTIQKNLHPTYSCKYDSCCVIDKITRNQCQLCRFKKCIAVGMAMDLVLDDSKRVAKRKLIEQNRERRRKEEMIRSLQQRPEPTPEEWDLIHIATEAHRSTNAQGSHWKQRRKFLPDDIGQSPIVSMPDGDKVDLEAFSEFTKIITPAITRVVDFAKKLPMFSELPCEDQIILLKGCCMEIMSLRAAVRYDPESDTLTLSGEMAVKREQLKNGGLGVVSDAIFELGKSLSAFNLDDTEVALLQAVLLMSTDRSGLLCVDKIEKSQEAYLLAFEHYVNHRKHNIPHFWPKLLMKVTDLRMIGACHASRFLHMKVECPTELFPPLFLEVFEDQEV
Sequence of DAT (Q01959 whole entry, species assumed): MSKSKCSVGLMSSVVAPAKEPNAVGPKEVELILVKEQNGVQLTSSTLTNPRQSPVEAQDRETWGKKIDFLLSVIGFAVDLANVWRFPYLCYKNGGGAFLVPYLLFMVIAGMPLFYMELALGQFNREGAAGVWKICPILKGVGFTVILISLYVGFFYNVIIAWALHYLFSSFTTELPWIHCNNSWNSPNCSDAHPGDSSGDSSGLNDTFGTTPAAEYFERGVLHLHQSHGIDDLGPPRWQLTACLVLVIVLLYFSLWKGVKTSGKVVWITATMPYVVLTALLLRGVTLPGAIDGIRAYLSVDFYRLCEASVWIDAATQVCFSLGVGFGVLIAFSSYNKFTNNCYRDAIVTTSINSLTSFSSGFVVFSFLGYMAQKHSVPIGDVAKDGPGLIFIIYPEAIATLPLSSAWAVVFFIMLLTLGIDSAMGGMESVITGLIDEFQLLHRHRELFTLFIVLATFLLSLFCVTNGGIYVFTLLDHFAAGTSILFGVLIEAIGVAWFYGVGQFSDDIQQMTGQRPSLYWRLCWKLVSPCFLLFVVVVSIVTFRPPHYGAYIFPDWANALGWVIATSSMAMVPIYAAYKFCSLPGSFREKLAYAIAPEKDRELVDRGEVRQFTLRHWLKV
Sequence of FXR (Q96RI1 262-486 limits assumed): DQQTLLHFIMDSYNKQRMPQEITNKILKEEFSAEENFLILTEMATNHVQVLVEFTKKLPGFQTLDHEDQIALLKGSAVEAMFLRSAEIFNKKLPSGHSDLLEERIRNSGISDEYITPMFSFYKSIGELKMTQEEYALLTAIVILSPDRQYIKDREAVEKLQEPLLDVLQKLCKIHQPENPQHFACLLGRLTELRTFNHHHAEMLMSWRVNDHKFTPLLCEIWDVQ
T4 sequence (P08913 whole entry): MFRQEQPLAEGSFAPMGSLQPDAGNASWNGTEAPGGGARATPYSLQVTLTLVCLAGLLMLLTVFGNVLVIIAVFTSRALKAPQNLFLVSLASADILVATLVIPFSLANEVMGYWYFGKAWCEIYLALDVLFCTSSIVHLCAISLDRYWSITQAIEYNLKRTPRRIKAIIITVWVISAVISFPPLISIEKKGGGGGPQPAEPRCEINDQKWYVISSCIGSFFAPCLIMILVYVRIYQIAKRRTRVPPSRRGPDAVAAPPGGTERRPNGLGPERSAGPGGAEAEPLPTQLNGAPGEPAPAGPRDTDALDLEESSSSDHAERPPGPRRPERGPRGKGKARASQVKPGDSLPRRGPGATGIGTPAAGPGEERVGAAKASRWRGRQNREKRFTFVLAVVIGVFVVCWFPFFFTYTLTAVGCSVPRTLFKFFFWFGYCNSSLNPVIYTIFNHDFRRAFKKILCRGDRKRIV
Sequence of ERα (P03372 311-547 limits assumed): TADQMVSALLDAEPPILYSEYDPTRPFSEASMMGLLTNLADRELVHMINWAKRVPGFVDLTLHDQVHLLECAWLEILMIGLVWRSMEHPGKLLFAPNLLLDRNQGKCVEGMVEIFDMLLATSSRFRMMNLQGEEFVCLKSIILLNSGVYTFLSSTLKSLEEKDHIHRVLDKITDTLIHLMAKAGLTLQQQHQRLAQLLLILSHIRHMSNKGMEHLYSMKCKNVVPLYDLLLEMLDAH
Sequence of Beta3 (P13945 whole entry): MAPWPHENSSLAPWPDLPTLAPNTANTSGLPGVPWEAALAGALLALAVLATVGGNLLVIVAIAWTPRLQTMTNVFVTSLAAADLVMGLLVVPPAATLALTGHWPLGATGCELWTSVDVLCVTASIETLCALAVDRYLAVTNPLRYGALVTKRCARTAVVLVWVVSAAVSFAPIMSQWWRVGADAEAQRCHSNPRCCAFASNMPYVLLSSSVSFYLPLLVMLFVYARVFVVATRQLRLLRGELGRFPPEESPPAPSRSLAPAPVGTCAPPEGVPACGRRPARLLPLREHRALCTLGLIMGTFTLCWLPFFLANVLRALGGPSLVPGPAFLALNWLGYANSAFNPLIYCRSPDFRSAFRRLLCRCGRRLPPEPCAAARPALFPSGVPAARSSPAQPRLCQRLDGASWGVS
Sequence of D2 (P14416 whole entry): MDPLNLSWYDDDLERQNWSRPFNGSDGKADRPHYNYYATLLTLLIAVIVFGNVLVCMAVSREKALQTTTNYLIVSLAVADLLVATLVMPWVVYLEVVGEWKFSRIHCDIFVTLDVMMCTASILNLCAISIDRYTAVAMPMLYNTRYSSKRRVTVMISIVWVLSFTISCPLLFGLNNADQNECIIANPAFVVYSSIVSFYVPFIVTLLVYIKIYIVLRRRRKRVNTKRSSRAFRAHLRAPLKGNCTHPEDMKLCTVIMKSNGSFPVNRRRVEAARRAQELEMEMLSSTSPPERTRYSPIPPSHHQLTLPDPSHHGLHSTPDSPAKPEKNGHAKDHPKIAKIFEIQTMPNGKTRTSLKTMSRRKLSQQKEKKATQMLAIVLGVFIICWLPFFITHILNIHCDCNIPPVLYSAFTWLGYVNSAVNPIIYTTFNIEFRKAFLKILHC
Sequence of VDR (P11473 127-427 limits assumed): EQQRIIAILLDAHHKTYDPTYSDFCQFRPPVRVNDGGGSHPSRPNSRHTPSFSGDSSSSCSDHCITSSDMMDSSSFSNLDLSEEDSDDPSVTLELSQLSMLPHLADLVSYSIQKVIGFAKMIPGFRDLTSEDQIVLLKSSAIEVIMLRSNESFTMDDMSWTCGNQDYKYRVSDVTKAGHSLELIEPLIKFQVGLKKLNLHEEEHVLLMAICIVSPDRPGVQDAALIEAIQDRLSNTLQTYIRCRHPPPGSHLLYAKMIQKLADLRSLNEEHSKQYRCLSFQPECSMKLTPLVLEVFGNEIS
Sequence of AR (P10275 669-920 limits assumed): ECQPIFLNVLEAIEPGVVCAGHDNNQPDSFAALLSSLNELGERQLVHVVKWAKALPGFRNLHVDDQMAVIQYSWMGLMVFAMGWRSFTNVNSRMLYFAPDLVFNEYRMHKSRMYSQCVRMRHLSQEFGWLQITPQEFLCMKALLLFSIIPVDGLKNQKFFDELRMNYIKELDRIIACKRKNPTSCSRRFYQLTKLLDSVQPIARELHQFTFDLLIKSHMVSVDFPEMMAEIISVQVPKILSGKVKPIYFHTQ
T1 sequence (P35368 whole entry): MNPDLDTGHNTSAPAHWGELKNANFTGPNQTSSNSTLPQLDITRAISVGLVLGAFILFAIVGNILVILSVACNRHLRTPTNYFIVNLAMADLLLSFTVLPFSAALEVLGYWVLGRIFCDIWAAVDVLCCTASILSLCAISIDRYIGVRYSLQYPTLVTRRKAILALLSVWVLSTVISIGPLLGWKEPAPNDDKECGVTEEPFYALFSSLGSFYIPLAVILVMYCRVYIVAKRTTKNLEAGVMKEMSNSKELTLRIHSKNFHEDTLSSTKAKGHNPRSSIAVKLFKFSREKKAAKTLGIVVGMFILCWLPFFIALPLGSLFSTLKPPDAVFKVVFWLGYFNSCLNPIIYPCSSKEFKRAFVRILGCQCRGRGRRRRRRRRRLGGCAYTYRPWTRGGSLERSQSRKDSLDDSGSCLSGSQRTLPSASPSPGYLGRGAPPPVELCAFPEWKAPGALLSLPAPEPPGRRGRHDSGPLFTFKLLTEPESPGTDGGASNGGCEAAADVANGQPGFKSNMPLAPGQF
Sequence of ERβ (Q92731 264-498 limits assumed): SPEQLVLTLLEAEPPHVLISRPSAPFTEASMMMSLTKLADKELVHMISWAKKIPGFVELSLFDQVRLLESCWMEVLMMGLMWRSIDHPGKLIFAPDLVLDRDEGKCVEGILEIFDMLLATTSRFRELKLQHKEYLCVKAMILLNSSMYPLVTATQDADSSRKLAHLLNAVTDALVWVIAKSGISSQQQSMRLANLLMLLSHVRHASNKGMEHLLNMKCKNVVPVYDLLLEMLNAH
Sequence of RARα (P10276 183-417 limits assumed): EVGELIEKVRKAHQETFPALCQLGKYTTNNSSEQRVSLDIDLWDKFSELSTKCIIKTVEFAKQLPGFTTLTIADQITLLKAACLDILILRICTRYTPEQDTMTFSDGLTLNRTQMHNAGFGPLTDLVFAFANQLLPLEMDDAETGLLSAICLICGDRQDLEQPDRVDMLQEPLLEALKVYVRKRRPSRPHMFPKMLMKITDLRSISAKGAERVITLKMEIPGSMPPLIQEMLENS
Sequence of MR (P08235 726-984 limits assumed): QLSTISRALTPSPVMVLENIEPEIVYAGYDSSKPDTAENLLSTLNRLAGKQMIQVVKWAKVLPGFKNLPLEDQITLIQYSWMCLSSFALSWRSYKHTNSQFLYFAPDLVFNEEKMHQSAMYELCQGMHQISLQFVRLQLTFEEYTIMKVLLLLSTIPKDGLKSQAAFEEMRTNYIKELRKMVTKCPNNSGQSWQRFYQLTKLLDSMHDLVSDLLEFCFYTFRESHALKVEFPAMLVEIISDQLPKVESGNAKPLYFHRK
Sequence of RXRα (P19793 227-462 limits assumed): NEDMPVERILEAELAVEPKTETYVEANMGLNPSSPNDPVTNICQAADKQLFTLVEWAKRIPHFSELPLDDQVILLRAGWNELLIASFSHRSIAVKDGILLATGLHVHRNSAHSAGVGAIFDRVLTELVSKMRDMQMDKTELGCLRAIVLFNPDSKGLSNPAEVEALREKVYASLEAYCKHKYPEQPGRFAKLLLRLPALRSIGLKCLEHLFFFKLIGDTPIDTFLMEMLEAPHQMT

What is called Ki is the dissociation constant of the complex between target and ligand, obtained from inhibition or displacement. Take `Clc1nnc2ccc(Oc3ccccc3-c3ccccc3)nn12` [STL1267]: the “activity at PXR, of the activity of 5μM rifampicin” value at PXR is 18%. In data set [1], the “number of targets with no detectable binding” value worked out at 41. For the same molecule, the activity result at FXR, at RXRα, on AR, at ERα, at RARα and at ERβ was “did not detect activity” in each case. Further, the activity result at VDR, at MR, at TRα, on LXRα and on PR was “did not detect activity” each time. The Ki at Beta3, at Alpha1B, on 5-HT6, on 5-HT2A, on Alpha2A and on 5-HT2C was above 10 µM each time. Further, the Ki at D2 and at DAT was above 10 µM each time.
